Laboratory results reported in ChEMBL document CHEMBL2380224, “Fragment-based ligand design of novel potent inhibitors of tankyrases” (J Med Chem, 2013).

Biological target: T1, Protein mono-ADP-ribosyltransferase PARP11 (Homo sapiens) (UniProt Q9NR21)
T1 sequence (whole entry): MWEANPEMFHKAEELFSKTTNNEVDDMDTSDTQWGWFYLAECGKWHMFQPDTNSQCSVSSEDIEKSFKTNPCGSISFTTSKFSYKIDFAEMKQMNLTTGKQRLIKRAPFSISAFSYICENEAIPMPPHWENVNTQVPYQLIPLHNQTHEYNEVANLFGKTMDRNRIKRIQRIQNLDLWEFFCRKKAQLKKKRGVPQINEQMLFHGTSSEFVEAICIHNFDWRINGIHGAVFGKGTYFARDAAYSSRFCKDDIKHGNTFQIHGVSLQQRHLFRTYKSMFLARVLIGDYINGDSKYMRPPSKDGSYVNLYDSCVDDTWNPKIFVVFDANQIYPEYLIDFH
Test: Inhibition of PARP11 (unknown origin) at 10 uM relative to control

Q: With Cc1cc(=O)[nH]c2cc(-c3ccccc3F)ccc12 as the molecule, how does the inhibition read?
A: Its inhibition is 23%.
